Assay results published in patent US20250296971A1, “GASTRIC INHIBITORY PEPTIDE RECEPTOR LIGANDS” (priority 2021, published 2025).
Like-named read-outs stand apart in the source and are kept apart here. *1 amine or outer side, *2 acyl side, *3 side chain or, on linkers, in order; H or OH if unused. Where a SMILES comes first, the peptide text is derived from it. Bridges are numbered along the chain shown (N, C = ends). Primed or numbered codes have the meaning given here. [ ]: non-standard residue; d: D form. The star is where a group is joined. ξ: configuration not given here. Ttds = 1,13-diamino-4,7,10-trioxatridecan-succinamic acid, NCCCOCCOCCOCCCNC(=O)CCC(=O)*; X3 = O=C(O)CN1CCN(CC(=O)O)CCN(CC(=O)NCCCOCCOCCOCCCN*)CCN(CC(=O)O)CC1; NH(1-deoxy-D-glucityl) = OC[C@@H](O)[C@@H](O)[C@H](O)[C@@H](O)CN*; Ttds(4) = 1,13-diamino-4,7,10-trioxatridecan-succinamic acid; DOTA = O=C(O)CN1CCN(CC(=O)O)CCN(CC(=O)*)CCN(CC(=O)O)CC1; Trp(5-Cl) = N[C@@H](Cc1c[nH]c2ccc(Cl)cc12)C(=O)O; Pyridine(2,6-diCH2) = c1cc(C[*:1])nc(C[*:2])c1; Trp(7-aza) = N[C@@H](Cc1c[nH]c2ncccc12)C(=O)O; 1Nal = N[C@@H](Cc1cccc2ccccc12)C(=O)O; mXylylene = c1cc(C[*:1])cc(C[*:2])c1; X7 = c1cc(CSCCN[*:2])cc(C[*:1])c1; Hyp = O=C(O)[C@@H]1C[C@@H](O)CN1; X1 = O=C(CN1CCC(N[*:1])CC1)[*:2]; Cysteamide = C(CS[*:3])N[*:1]; Suc = O=C(CCC(=O)[*:2])[*:1]; Thp = NC1(C(=O)O)CCOCC1; Aib = CC(C)(N)C(=O)O; ξP = O=C(O)C1CCCN1

T1: GIPR (CHO-K1-hGIPR cells) (Homo sapiens, UniProt P48546)
T1 construct: host or cells: CHO-K1
T1 sequence (P48546 22-466): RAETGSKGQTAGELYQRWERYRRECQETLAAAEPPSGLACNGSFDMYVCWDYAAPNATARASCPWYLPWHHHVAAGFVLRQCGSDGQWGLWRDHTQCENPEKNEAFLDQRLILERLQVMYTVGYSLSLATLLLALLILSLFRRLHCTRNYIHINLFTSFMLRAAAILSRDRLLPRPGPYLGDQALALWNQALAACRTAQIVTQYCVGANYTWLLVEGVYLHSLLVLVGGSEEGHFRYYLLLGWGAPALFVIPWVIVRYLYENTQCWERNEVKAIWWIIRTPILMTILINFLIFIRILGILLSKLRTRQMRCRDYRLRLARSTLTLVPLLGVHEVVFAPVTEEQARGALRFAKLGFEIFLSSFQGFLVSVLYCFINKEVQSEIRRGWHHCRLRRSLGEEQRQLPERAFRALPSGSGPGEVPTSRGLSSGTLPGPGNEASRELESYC

T2: human GIP receptor (bioGIPR) (Homo sapiens, UniProt P48546)
T2 construct: Biotinylate extracellular of the human GIP receptor (bioGIPR, Proteros biostructures GmbH, lot #02/2b); purchased Proteros biostructures GmbH lot #02/2b
T2 sequence (P48546 22-138 limits assumed): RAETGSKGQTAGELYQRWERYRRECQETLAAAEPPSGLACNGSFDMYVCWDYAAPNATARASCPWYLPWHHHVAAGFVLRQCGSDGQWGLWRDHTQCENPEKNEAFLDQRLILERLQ


How the values were obtained:
[1] = target: T1, GIPR (CHO-K1-hGIPR cells); experiment: FACS binding assay; details: read-out: pIC50 Category (converted)
Procedure, shortened: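 CHO-K1 cells expressing human GIPR, washed in PBS/1% FCS, then stained with 1 μg/mL APC-streptavidin for 30 min on ice.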

[2] = target: T2, human GIP receptor (bioGIPR); experiment: Surface plasmon resonance (SPR) based binding assay; details: Single Cycle Kinetic mode, 25° C.
Procedure, shortened: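 Binding was measured at 25 °C by single-cycle kinetics against a reference flow cell, with blank-run and drift correction, after capturing biotinylated GIPR extracellular domain to ~3500 RU. Running buffer: HBST, 0.1% DMSO. A 1:1 Langmuir model gave kinetic rates, KD, t1/2 and pKD.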

[3] = Plasma stability assay, mouse plasma; format: in vitro ADME; details: 37° C., % intact compound remaining after 4 h or 24 h
Experimental: In order to determine the stability of selected compounds of the invention in human and mouse plasma, a plasma stability assay was carried out. Such plasma stability assay measures degradation of compounds of the present invention in blood plasma. This is an important characteristic of a compound as compounds, with the exception of pro-drugs, which rapidly degrade in plasma, generally show poor in vivo efficacy. […] The stability is sufficient for the diagnostic, therapeutic and theragnostic use of these compounds according to the present invention.
The plasma stability samples were prepared by spiking 50 μL plasma aliquots (all K2EDTA) with 1 μL of a 0.5 mM compound stock solution in DMS0. After vortexing the samples were incubated in a Thermomixer at 37° C. for 0, 4 and 24 hours. After incubation the samples were stored on ice until further treatment. All samples were prepared in duplicates.
A suitable internal standard was added to each sample (1 μL of a 0.5 mM stock solution in DMSO). Protein precipitation was performed by addition of 250 μL of acetonitrile containing 1% trifluoroacetic acid. After incubation at room temperature for 30 min the precipitate was separated by centrifugation and 150 μL of the supernatant was diluted with 150 μL of 1% aqueous formic acid.
Additionally, recovery was determined by spiking a pure plasma sample that only contained the internal standard after treatment with a certain amount of the compound.
Carry-over was evaluated by analysis of a blank sample (20% acetonitrile) after the highest calibration sample.

[4] = target: human Gastric Inhibitory Peptide Receptor (GIPR) (human) (UniProt P48546); experiment: FACS competition vs biotinylated GIP-057 on CHO-K1-hGIPR cells; category D: pIC50 <=6.0
[5] = competition with 20 nM GIP-057, 4° C., 1 hour

| Molecule | IC50 [1, 5] | Mouse plasma stability category [3] | pIC50 [4] | other results |
| --- | --- | --- | --- | --- |
| HO-Succinyl-Trp-Trp-Pro-Glu-leu-[Cys(3MeBn)-ala-Leu-Ile-Cys]-Ttds-Lys(DOTA)-NH2 (peptide) | – | – | < 6 pic50 | – |
| Ac-Asp-Trp-1Ni-Pro-Glu-Thi-[Cys(3MeBn)-Aib-Leu-Ile-Cys]-NH2 (peptide) | – | – | < 6 pic50 | – |
| Ac-D[Trp(7-aza)][1Nal]PE[dL]C[Aib]LIC-{Ttds(4)-K(DOTA)-NH2} (linker 7-11 via mXylylene) [Ac-Asp-7Nw-1Ni-Pro-Glu-leu-[Cys(3MeBn)-Aib-Leu-Ile-Cys]-Ttds-Lys(DOTA)-NH2] | – | – | < 6 pic50 | – |
| {DOTA-Ttds}-WDP[Trp(5-Cl)][dL]ECLI[Aib][Cysteamide] (linker 7-11 via mXylylene) [DOTA-Ttds-Trp-Asp-Pro-5Clw-leu-Glu-[Cys(3MeBn)-Leu-Ile-Aib-AET]] | – | – | < 6 pic50 | – |

More lines, main results first:

| IC50 [1, 5] | Mouse plasma stability category [3] | pIC50 [4] | Molecule | other results |
| --- | --- | --- | --- | --- |
| < 10 nM | A (>80% intact after 24 hours) | – | CC[C@H](C)[C@@H]1NC(=O)[C@H](CC(C)C)NC(=O)C2(CCOCC2)NC(=O)[C@@H](NC(=O)[C@@H](CC(C)C)NC(=O)[C@H](CCC(=O)O)NC(=O)[C@@H]2C[C@@H](O)CN2C(=O)[C@H](Cc2c[nH]c3ccc(Cl)cc23)NC(=O)[C@H](Cc2c[nH]c3ccccc23)NC(=O)[C@H](CC(=O)O)NC(=O)CN2CCC(NC(=O)[C@@H](CCC(=O)NC[C@H](O)[C@@H](O)[C@H](O)[C@H](O)CO)NC(=O)CN3CCN(CC(=O)O)CCN(CC(=O)O)CCN(CC(=O)O)CC3)CC2)CSCc2cccc(n2)CSC[C@@H](C(=O)NC2CCN(CC(=O)N[C@H](CCC(=O)NC[C@H](O)[C@@H](O)[C@H](O)[C@H](O)CO)C(N)=O)CC2)NC1=O [GIP-005, DOTA-glu(AGLU)-APAc-Asp-Trp-5Clw-Hyp-Glu-leu-[Cys(2Lut)-Thp-Leu-Ile-Cys]-APAc-glu(AGLU)-NH2] ({DOTA}-[dE](NH(1-deoxy-D-glucityl))[X1]DW[Trp(5-Cl)][Hyp]E[dL]C[Thp]LIC[X1][dE](NH(1-deoxy-D-glucityl))-NH2; linker 9-13 via Pyridine(2,6-diCH2)) | t1/2 Category ([2]; SPR dissociation half-life): A (t1/2 values>15 min); Kd ([2]; SPR, 1:1 Langmuir binding model, read-out: pKD Category (converted)): < 1 nM |
| – | B (>80% intact after 4 hours) | – | CC[C@H](C)[C@@H]1NC(=O)[C@H](CC(C)C)NC(=O)C(C)(C)NC(=O)[C@@H](NC(=O)[C@H](CC(C)C)NC(=O)[C@@H](CCC(=O)O)NC(=O)C2CCCN2C(=O)[C@H](Cc2c[nH]c3ccccc23)NC(=O)[C@H](Cc2c[nH]c3ccccc23)NC(=O)[C@H](CC(=O)O)NC(=O)CCC(=O)NCCCOCCOCCOCCCNC(=O)CN2CCN(CC(=O)O)CCN(CC(=O)O)CCN(CC(=O)O)CC2)CSCc2cccc(c2)CSC[C@@H](C(N)=O)NC1=O (stereo partly drawn) [GIP-270, DOTA-Ttds-Asp-Trp-Trp-Pro-glu-Leu-[Cys(3MeBn)-Aib-Leu-Ile-Cys]-NH2] ({X3-Suc}-DWW[ξP][dE]LC[Aib]LIC-NH2; linker 7-11 via mXylylene) | IC50 ([1]; competition with 20 nM GIP-057, 4° C. for 1 hour): 100 to 794 nM |
| 10 to 79.4 nM | B (>80% intact after 4 hours) | – | CC[C@H](C)[C@@H]1NC(=O)[C@H](CC(C)C)NC(=O)C(C)(C)NC(=O)[C@@H](NC(=O)[C@@H](CC(C)C)NC(=O)[C@H](CCC(=O)O)NC(=O)[C@@H]2CCCN2C(=O)[C@H](Cc2c[nH]c3ccccc23)NC(=O)[C@H](Cc2c[nH]c3ccccc23)NC(=O)[C@H](CC(=O)O)NC(=O)CCC(=O)NCCCOCCOCCOCCCNC(=O)CN2CCN(CC(=O)O)CCN(CC(=O)O)CCN(CC(=O)O)CC2)CSCc2cccc(c2)CSCCNC1=O [GIP-129, DOTA-Ttds-Asp-Trp-Trp-Pro-Glu-leu-[Cys(3MeBn)-Aib-Leu-Ile-AET]] ({X3-Suc}-DWWPE[dL]C[Aib]LI; linker 7-C via X7) | – |
| 10 to 79.4 nM | B (>80% intact after 4 hours) | – | CC[C@H](C)[C@@H]1NC(=O)[C@H](CC(C)C)NC(=O)C(C)(C)NC(=O)[C@@H](NC(=O)[C@@H](CC(C)C)NC(=O)[C@H](CCC(=O)O)NC(=O)[C@@H]2CCCN2C(=O)[C@H](Cc2c[nH]c3ccccc23)NC(=O)[C@H](Cc2c[nH]c3ccccc23)NC(=O)[C@H](CC(=O)O)NC(=O)CCC(=O)NCCCOCCOCCOCCCNC(=O)CN2CCN(CC(=O)O)CCN(CC(=O)O)CCN(CC(=O)O)CC2)CSCc2cccc(c2)CSC[C@@H](C(N)=O)NC1=O [GIP-128, DOTA-Ttds-Asp-Trp-Trp-Pro-Glu-leu-[Cys(3MeBn)-Aib-Leu-Ile-Cys]-NH2] ({X3-Suc}-DWWPE[dL]C[Aib]LIC-NH2; linker 7-11 via mXylylene) | – |
